Measurements from patent US7998989B2, “2-Imino-1,3-thiazoline-based compounds and T-type calcium channel inhibitors containing the same” (Korea Institute of Science and Technology, priority 2007, dated 2011).

How the values were obtained:
[1] = target: T1, α1G T-type calcium channel (Homo sapiens, UniProt O43497); experiment: Assay for % inhibiting activity against T-type calcium channel using FDSS6000 (fluo-3 calcium imaging, KCl activation); assay type: cell-based; settings: 10 μM; HEK293 cells stably expressing α1G T-type calcium channel and Kir2.1; compounds of the examples
T1 construct: host or cells: HEK293
T1 sequence (O43497 whole entry): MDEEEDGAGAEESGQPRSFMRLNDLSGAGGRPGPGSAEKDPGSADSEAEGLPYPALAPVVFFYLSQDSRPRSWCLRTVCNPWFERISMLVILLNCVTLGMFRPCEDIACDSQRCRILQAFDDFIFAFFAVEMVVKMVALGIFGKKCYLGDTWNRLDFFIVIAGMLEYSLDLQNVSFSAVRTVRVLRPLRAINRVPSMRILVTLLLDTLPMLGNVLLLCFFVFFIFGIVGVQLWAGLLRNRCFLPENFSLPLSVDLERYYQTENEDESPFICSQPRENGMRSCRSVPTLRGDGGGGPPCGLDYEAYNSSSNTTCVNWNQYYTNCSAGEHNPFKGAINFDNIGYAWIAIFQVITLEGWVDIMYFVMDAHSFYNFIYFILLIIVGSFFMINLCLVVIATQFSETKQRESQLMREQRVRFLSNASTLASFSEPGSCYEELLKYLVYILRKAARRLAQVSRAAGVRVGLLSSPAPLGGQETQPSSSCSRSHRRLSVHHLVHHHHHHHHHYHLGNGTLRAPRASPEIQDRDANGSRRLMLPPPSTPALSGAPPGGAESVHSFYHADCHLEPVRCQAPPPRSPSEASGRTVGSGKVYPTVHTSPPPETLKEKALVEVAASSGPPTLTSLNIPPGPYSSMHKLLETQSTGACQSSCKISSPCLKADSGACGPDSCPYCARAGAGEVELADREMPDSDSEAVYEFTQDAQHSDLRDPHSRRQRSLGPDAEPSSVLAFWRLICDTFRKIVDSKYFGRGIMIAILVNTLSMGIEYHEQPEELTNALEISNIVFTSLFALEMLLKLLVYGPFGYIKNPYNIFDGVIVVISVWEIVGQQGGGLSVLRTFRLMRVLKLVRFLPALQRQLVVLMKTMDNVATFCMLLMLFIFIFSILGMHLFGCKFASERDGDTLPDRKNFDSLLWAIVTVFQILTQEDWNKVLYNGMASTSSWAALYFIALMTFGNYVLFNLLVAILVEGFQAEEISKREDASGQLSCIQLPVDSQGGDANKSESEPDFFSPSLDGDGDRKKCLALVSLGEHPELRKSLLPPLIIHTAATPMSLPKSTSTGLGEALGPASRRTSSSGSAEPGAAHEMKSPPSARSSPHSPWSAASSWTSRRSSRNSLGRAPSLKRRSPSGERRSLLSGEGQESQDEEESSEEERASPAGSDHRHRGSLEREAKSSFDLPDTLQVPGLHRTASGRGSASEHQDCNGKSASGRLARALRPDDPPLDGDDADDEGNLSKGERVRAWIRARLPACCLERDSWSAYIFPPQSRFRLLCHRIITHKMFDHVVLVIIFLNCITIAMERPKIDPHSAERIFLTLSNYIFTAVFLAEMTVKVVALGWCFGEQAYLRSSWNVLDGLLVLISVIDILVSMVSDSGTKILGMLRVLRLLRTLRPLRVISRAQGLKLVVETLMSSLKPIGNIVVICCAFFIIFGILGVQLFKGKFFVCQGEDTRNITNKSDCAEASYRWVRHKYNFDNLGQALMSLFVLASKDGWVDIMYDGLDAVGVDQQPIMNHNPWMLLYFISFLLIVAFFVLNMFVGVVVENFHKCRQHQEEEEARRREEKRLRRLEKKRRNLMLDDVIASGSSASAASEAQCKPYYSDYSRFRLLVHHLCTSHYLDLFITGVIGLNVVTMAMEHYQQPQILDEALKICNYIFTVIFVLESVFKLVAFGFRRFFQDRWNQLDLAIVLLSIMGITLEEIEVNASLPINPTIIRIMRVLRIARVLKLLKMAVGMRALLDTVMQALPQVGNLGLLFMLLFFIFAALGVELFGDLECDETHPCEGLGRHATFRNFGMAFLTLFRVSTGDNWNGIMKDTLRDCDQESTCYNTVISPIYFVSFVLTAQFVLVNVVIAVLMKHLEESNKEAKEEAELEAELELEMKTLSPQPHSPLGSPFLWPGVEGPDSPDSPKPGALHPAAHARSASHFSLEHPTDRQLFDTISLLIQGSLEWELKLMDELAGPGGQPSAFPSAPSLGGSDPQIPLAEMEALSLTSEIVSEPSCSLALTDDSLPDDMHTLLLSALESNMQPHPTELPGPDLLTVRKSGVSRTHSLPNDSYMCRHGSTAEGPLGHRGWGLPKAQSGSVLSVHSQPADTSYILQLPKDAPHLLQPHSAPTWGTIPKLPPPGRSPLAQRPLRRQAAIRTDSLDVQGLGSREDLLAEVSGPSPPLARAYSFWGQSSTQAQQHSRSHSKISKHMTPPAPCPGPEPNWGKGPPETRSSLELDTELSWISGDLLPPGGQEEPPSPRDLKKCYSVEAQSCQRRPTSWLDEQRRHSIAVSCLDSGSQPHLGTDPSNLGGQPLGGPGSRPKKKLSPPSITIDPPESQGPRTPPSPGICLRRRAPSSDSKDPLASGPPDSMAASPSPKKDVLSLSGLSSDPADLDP
In short: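 HEK293 cells stably expressing α1G and Kir2.1 loaded with 5 μM fluo-3/AM, then in HEPES buffer (pH 7.4) with 10 mM CaCl2. Compound applied 75 s before 75 mM KCl; intracellular Ca2+ read as […] area, % inhibition relative to untreated control.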

[2] = target: T1, α1G T-type calcium channel; experiment: Electrophysiological whole cell patch clamp measurement of T-type calcium channel current in HEK293 cells; assay type: cell-based; settings: HEK293 cells expressing α1G; for HEK293cell (% Inhibition) 10 μM: inhibition of peak current; for IC50: read-out: IC50 (a1G)
Experimental: In the present invention, in order to examine an efficient inhibitor against the T-type calcium channel, a primary assay for T-type calcium channel inhibiting activity was conducted by a high-efficient assay using FDSS6000, wherein mammal HEK293 cell lines (originated from human kidney carcinoma cells) that specifically express α1G of the T-type calcium channel was used for primary assay. Through the primary assay, compounds that show meaningful inhibition effects were selected. The selected compounds were used in a second assay for T-type calcium channel inhibiting activity using an electrophysiological whole cell patch clamp method, wherein mammal HEK293 cell lines (originated from human kidney carcinoma cells) that specifically express α1G of the T-type calcium channel was used for the second assay. Mibefradil, which had been developed as a T-type calcium channel inhibitor, was used as a reference.
10% Fetal bovine serum (FBS) and 1% penicillin/streptomycin (v/v) were added to Dulbecco's modified Eagle's medium (DMEM), to be used as a media solution. The cells were cultured in an incubator under a wet condition of 95% air/5% CO2 and a temperature of 36.5° C. The media solution was refreshed every 3 or 4 days, and the cells were sub-cultured every week. Only the cells that expressed α1G T-type calcium channel were cultured using a G-418 (0.5 mg/ml) solution. The recording of the cells used in the T-type calcium channel activity analysis was conducted at 2-7 days after the cells were culturing on a cover slip coated with poly-L-lysine (0.5 mg/ml) when conducting every sub-culture. For analysis at a single cell level, the T-type calcium channel current was measured by an electrophysiological whole cell patch clamp method using EPC-9 amplifier (HEKA, German).
As solutions for analyzing T-type calcium channel activity, a solution including NaCl 140 mM, CaCl2 2 mM, and HEPES10 mM (pH 7.4, Sigma; 4-(2-hydroxyethyl)piperazine-1-ethanesulfonic acid) was used as an extracellular solution, and a solution including KCl 130 mM, HEPES 10 mM (Sigma), EGTA 11 mM (ethylene glycol-bis(2-aminoethylether)-N,N,N′,N′-tetraacetic acid, Sigma), and MgATP 5 mM (pH 7.4, Sigma) was used as an intracellular solution. The protocol for T-type calcium channel activity that is activated at low voltage is as follows. A micro-glass electrode with resistance of 3-4 MΩ wherein the above-prepared intracellular solution was filled was pricked into a single cell, to make a whole-cell recording mode. Thereafter, the cell membrane potential was fixed to −100 mV, and then the inward current due to the T-type calcium channel activity when hypopolarizing to −30 mV (50 ms duration) was measured every 10 seconds.
Each compound to be tested was dissolved in 100% dimethylsulfoxide (DMSO) to make a 10 mM stock solution. The effect of the compound on the T-type calcium channel current compound was initially examined in the stock solution with the 1000-times diluted concentration of 10 μM (containing 0.1% DMSO) and then examined in the solution with the concentration for IC50 measurement (mostly 0.1 to 100 μM), to obtain an IC50 value. More specifically, the cells were treated in each compound together with the extracellular solution for 30 to 60 seconds, and the inhibition level of peak current induced by the compound was calculated as a percentage, to obtain the % inhibition value as shown in Table 4.

Compound	FDSS (% inhibition)/10uM [1] [%]	HEK293cell (% Inhibition) 10 μM [2] [%]	IC50 [2] [nM]
CN1C(=NC2CCCCCC2)SCC1CC(=O)Nc1cc(Cl)cc(Cl)c1.Cl (stereo not drawn) [KHG24125, (2-cycloheptylimino-3-methyl-1,3-thiazolidine-4-yl)-N-(3,5- ? chlorophenyl)-acetamide hydrochloride]	71.79	95.6 ± 1.2	80 ± 10
(2-cycloheptylimino-3-methyl-1,3-thiazolidine-4-yl)-N-(2,4-difluorophenyl)-acetamide hydrochloride [KHG24127]	49.69	80.8 ± 0.6	2660 ± 330
(2-cycloheptylimino-3-methyl-1,3-thiazolidine-4-yl)-N-(2-chloro-4-fluorophenyl)-acetamide hydrochloride [KHG24120]	60.08	82.7 ± 0.9	2750 ± 250
(2-cycloheptylimino-3-methyl-1,3-thiazolidine-4-yl)-N-(2-fluoro-4-methylphenyl)-acetamide hydrochloride [KHG24126]	53.79	87.7 ± 0.6	1200 ± 80
(2-cycloheptylimino-3-methyl-1,3-thiazolidine-4-yl)-N-(2-fluoro-5-nitrophenyl)-acetamide hydrochloride [KHG24129]	61.39	90.0 ± 0.4	1570 ± 110
(2-cycloheptylimino-3-methyl-1,3-thiazolidine-4-yl)-N-(4-bromophenyl)-acetamide hydrochloride [KHG24122]	71.12	94.6 ± 0.5	390 ± 30
(2-cycloheptylimino-3-methyl-1,3-thiazolidine-4-yl)-N-(4-chloro-2-fluorophenyl)-acetamide hydrochloride [KHG24130]	70.4	90.0 ± 0.9	810 ± 80
(2-cycloheptylimino-3-methyl-1,3-thiazolidine-4-yl)-N-(4-chlorobenzyl)-acetamide hydrochloride [KHG24160]	61.93	92.9 ± 0.7	1330 ± 30
(2-cycloheptylimino-3-methyl-1,3-thiazolidine-4-yl)-N-(4-chlorophenyl)-acetamide hydrochloride [KHG24131]	72.86	86.8 ± 0.3	520 ± 20
(2-cycloheptylimino-3-methyl-1,3-thiazolidine-4-yl)-N-(4-cyanomethylphenyl)-acetamide hydrochloride [KHG24121]	41.02	58.1 ± 4.9	8530 ± 1720
(2-cycloheptylimino-3-methyl-1,3-thiazolidine-4-yl)-N-(4-ethylphenyl)-acetamide hydrochloride [KHG24117]	67.09	93.0 ± 2.5	570 ± 70
(2-cycloheptylimino-3-methyl-1,3-thiazolidine-4-yl)-N-(4-fluorobenzyl)-acetamide hydrochloride [KHG24159]	48.52	76.8 ± 1.4	3570 ± 290
(2-cycloheptylimino-3-methyl-1,3-thiazolidine-4-yl)-N-(4-fluorophenyl)-acetamide hydrochloride [KHG24118]	66	80.3 ± 1.1	1880 ± 220
(2-cycloheptylimino-3-methyl-1,3-thiazolidine-4-yl)-N-(4-isopropylphenyl)-acetamide hydrochloride [KHG24133]	69.18	96.0 ± 1.9	420 ± 10
(2-cycloheptylimino-3-methyl-1,3-thiazolidine-4-yl)-N-(4-methoxybenzyl)-acetamide hydrochloride [KHG24161]	31.29	81.2 ± 1.3	1670 ± 510
(2-cycloheptylimino-3-methyl-1,3-thiazolidine-4-yl)-N-(4-methoxyphenyl)-acetamide hydrochloride [KHG24119]	52.85	72.9 ± 1.0	4440 ± 280
(2-cycloheptylimino-3-methyl-1,3-thiazolidine-4-yl)-N-(4-methyl-2-chlorophenyl)-acetamide hydrochloride [KHG24124]	59.49	87.1 ± 1.2	1770 ± 100
(2-cycloheptylimino-3-methyl-1,3-thiazolidine-4-yl)-N-(4-n-butylphenyl)-acetamide hydrochloride [KHG24134]	75.92	95.1 ± 2.0	340 ± 30
(2-cycloheptylimino-3-methyl-1,3-thiazolidine-4-yl)-N-(4-phenoxyphenyl)-acetamide hydrochloride [KHG24123]	76.6	94.2 ± 2.0	1090 ± 200
(2-cycloheptylimino-3-methyl-1,3-thiazolidine-4-yl)-N-(5-chloro-2-fluorophenyl)-acetamide hydrochloride [KHG24128]	62.56	88.1 ± 1.9	550 ± 10
(2-cycloheptylimino-3-methyl-1,3-thiazolidine-4-yl)-N-phenyl-acetamide hydrochloride [KHG24132]	50.94	76.8 ± 1.0	5000 ± 1970
(2-cyclohexylimino-3-methyl-1,3-thiazolidine-4-yl)-N-(2-fluoro-5-nitrophenyl)-acetamide hydrochloride [KHG23360]	66.64	87.8 ± 2.2	780 ± 80
(2-cyclohexylimino-3-methyl-1,3-thiazolidine-4-yl)-N-(2-trifluoromethylphenyl)-acetamide hydrochloride [KHG24083]	47.92	76.5 ± 2.3	3630 ± 540
(2-cyclohexylimino-3-methyl-1,3-thiazolidine-4-yl)-N-(3,5-dichlorophenyl)-acetamide hydrochloride [KHG23356]	60.46	97.0 ± 0.7	230 ± 10
(2-cyclohexylimino-3-methyl-1,3-thiazolidine-4-yl)-N-(3,5-ditrifluoromethylphenyl)-acetamide hydrochloride [KHG24075]	73.72	94.1 ± 1.5	320 ± 20
(2-cyclohexylimino-3-methyl-1,3-thiazolidine-4-yl)-N-(3-chloro-4-methylphenyl)-acetamide hydrochloride [KHG24072]	63.5	91.2 ± 1.6	990 ± 30
(2-cyclohexylimino-3-methyl-1,3-thiazolidine-4-yl)-N-(3-trifluoromethylphenyl)-acetamide hydrochloride [KHG24084]	58.61	82.2 ± 1.4	2790 ± 110
(2-cyclohexylimino-3-methyl-1,3-thiazolidine-4-yl)-N-(4-bromophenyl)-acetamide hydrochloride [KHG23354]	54.26	83.0 ± 1.4	2470 ± 180
